According to article PMC10221946, “Screening of Tyrosinase, Xanthine Oxidase, and α-Glucosidase Inhibitors from Polygoni Cuspidati Rhizoma et Radix by Ultrafiltration and HPLC Analysis” (Molecules, 2023):

How the values were obtained:
TYR [1] = assay: UF-HPLC screening, binding degree with TYR; conditions: PCR extraction 5 mg/mL, 200 U/mL TYR, 37 °C 60 min, active vs inactive enzyme peak area
Procedure: (§1) The UF experiment was performed according to the method described in the literature, with slight modifications. In the experimental group, 200 µL of the PCR extraction (5 mg/mL) was mixed with 200 µL of 3 enzyme solutions (200 U/mL of TYR, 4 U/mL of XOD, and 6 U/mL of α-GLU, respectively). The mixtures were incubated at 37 °C for 60 min, and then 200 μL of each of them was transferred to a 3 KDa molecular weight cut-off ultrafiltration centrifuge tube to separate the unbound compounds from the enzyme–ligand complexes by centrifugation (9400× g, 30 min). Finally, the ultrafiltration filter was washed three times with 5% methanol–PBS under centrifugal conditions (9400× g, 30 min) to completely remove any unbound components. The concentration and pH of the PBS used for the different enzymes were the same as for the offline inhibition tests.
(§2) Finally, the unbound component solutions of the experimental and control groups were analyzed by HPLC. […] Binding degree = (1 − P2/P1) × 100%(2)
(§3) HPLC condition: An Agilent 1260 high-performance liquid chromatography system (Agilent Technologies, Santa Clara, CA, USA), equipped with a quaternary pump system, an auto-sampler, a column oven, and a diode array detector, was employed in the current experiment. The sample was separated on an Agilent Poroshell 120 EC-C18 column (100 mm × 4.6 mm, 2.7 μm). The column temperature was set at 30 °C. The mobile phase was 0.1% aqueous formic acid (A) and acetonitrile (B), with a gradient elution procedure of 5% B (0 min), 5% B (3 min), 20% B (23 min), 24% B (28 min), 60% B (32 min), and 100% B (38 min). The flow rate was 0.6 mL/min. The detection wavelength was set at 290 nm, and the injection volume was 5.0 µL.

α-GLU [2] = assay: UF-HPLC screening, binding degree with α-GLU; conditions: PCR extraction 5 mg/mL, 6 U/mL α-GLU, 37 °C 60 min, active vs inactive enzyme peak area
Procedure: as §1, §2, §3

XOD [3] = molecular target: T1, XOD (Bos taurus, UniProt P80457); assay: UF-HPLC screening, binding degree with XOD; conditions: PCR extraction 5 mg/mL, 4 U/mL XOD, 37 °C 60 min, active vs inactive enzyme peak area
T1 construct: purchased Sigma-Aldrich (Shanghai, China)
Procedure: as §1, §2, §3

xanthine oxidase (XOD) = xanthine oxidase (XOD) (Bos taurus, UniProt P80457); assay: Xanthine oxidase (XOD) inhibition test, offline 96-well microplate
Procedure: In the XOD inhibition assay, each well contained 30 μL of the PCR sample, 30 μL of XOD (0.05 U/mL, dissolved in 200 mM of phosphate buffer, pH 8.5), and 15 μL of NBT (2 mg/mL, dissolved in 200 mM of phosphate buffer, pH 8.5). […] The reaction was stopped by adding 15 µL of SDS (10%). The reaction solution was tested at 560 nm.

TYR [4] = assay: Kinetic analysis (Lineweaver–Burk) on TYR; format: biochemical; conditions: Lineweaver–Burk plot, L-tyrosine 1.0~5.0 mM, TYR 200 U/mL
Procedure: (§4) Subsequently, kinetic analysis was conducted using Lineweaver–Burk plots to investigate the inhibition modes on enzymes caused by methylgallate and polydatin. Competitive, noncompetitive, and mixed inhibitions are three common modes in enzyme kinetic analysis. […] All of the straight lines almost intersect on the Y axis at a certain point. […] All of the straight lines almost intersect on the X axis at a certain point. […] All of the straight lines usually intersect in the quadrants at one point.
(§5) In this work, Lineweaver–Burk was used to investigate the inhibition type of methylgallate and polydatin on enzymes. For TYR, the concentration of the enzyme was kept constant at 200 U/mL, and various concentrations of L-tyrosine (1.0~5.0 mM) were prepared. Various concentrations of methylgallate (0.0~1.3 mM) and polydatin (0.0~0.4 mM) were also provided. For XOD, the concentration of the enzyme was kept constant at 0.05 U/mL, and various concentrations of xanthin (0.06~0.50 mM) were prepared. Various concentrations of polydatin (0.0~0.5 mM) were also provided. For α-GLU, the concentration of the enzyme was kept constant at 0.15 U/mL, and various concentrations of ρNPG (0.8~5.0 mM) were prepared. Various concentrations of polydatin (0.0~3.6 mM) were also provided. GraphPad Prism 5.0 software (USA) was used for the calculation.

tyrosinase (TYR) = molecular target: T2, tyrosinase (TYR) (Agaricus bisporus, UniProt C7FF04); assay: Tyrosinase (TYR) inhibition test, offline 96-well microplate; format: biochemical
T2 construct: purchased Sigma-Aldrich (Shanghai, China)
Procedure: The reaction was incubated at 25 °C for 50 min. […] Inhibition (%) = [(Abscontrol − Abssample)/Abscontrol] × 100%(1)

XOD [5] = molecular target: T1, XOD; assay: Kinetic analysis (Lineweaver–Burk) on XOD; format: biochemical; conditions: Lineweaver–Burk plot, xanthin 0.06~0.50 mM, XOD 0.05 U/mL
Procedure: as §4, §5

α-GLU [6] = assay: Kinetic analysis (Lineweaver–Burk) on α-GLU; format: biochemical; conditions: Lineweaver–Burk plot, ρNPG 0.8~5.0 mM, α-GLU 0.15 U/mL
Procedure: as §4, §5

T1 sequence (P80457 whole entry): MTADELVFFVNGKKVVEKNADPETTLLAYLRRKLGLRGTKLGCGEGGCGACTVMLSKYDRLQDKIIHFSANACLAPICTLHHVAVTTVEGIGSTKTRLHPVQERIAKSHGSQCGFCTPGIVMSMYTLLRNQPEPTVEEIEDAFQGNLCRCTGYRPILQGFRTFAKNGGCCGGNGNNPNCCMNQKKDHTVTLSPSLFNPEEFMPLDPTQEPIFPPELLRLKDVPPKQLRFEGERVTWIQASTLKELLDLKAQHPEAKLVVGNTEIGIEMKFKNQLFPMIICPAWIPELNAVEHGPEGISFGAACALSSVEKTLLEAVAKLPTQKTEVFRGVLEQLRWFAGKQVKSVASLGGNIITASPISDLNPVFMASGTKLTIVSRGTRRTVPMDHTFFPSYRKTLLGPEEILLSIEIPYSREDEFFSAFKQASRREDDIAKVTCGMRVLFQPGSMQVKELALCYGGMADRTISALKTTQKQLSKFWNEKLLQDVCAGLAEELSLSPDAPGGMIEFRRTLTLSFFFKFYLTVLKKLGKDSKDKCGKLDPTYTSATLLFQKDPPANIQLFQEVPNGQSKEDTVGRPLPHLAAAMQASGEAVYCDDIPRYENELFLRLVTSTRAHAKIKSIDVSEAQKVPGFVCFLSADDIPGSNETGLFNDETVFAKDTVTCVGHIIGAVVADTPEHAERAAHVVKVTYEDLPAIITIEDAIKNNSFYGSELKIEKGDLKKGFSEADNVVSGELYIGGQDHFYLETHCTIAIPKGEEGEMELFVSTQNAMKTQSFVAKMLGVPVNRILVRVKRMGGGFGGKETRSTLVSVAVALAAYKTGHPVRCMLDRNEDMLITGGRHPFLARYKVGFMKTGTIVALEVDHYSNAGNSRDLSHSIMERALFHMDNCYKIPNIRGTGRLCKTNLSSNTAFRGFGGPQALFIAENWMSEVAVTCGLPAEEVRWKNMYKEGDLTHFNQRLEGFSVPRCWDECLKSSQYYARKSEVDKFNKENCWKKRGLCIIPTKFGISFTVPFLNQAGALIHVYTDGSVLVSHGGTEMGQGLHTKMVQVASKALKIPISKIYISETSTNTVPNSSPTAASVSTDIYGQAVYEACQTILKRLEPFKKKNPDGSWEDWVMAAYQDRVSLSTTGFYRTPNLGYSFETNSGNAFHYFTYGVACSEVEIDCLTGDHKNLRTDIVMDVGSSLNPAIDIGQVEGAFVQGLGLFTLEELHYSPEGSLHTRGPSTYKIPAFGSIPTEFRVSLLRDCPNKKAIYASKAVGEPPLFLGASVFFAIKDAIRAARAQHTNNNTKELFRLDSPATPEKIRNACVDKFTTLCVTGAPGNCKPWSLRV
T2 sequence (C7FF04 1-392 limits assumed): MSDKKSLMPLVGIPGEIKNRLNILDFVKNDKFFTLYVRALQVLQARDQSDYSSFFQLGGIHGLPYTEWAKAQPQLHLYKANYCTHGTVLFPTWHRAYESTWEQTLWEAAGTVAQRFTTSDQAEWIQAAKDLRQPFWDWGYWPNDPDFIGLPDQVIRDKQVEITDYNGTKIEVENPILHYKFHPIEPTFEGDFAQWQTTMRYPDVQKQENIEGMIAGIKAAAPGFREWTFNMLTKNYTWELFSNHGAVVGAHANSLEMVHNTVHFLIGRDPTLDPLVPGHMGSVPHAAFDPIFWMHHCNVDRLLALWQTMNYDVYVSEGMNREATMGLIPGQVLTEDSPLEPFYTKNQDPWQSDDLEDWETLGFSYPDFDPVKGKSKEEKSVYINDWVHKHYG
xanthine oxidase (XOD), sequence (P80457 whole entry): as the sequence (P80457 whole entry) above

Binding degree: TYR (TYR [1]) [%]	Binding degree: α-GLU (α-GLU [2]) [%]	Binding degree: XOD (XOD [3]) [%]	Compound	also measured
71.32	14.58	30.66	OC[C@H]1O[C@@H](Oc2ccc(/C=C/c3cc(O)cc(O)c3)cc2)[C@H](O)[C@@H](O)[C@@H]1O [Resveratrol-4′-O-D-glucoside (4), Resveratrol-4′-O-D-glucoside]	–
77.53	0.00	50.69	O=C(OC[C@H]1O[C@@H](OC(=O)c2cc(O)c(O)c(O)c2)[C@H](O)[C@@H](O)[C@@H]1O)c1cc(O)c(O)c(O)c1 [1,6-Di-O-galloyl-D-glucose (2), 1,6-Di-O-galloyl-D-glucose]	–
–	–	–	OC[C@H]1O[C@@H](Oc2cc(O)cc(/C=C/c3ccc(O)cc3)c2)[C@H](O)[C@@H](O)[C@@H]1O [Polydatin (5), Polydatin]	IC50 (xanthine oxidase (XOD)): 2130 µM; inhibition mode on TYR (TYR [4]): mixed type; Binding degree: TYR (TYR [1]; listed as Peak 5): 80.74%; IC50 (tyrosinase (TYR)): 188 µM; inhibition mode on XOD (XOD [5]): competitive type; Binding degree: α-GLU (α-GLU [2]; listed as Peak 5): 16.51%; Binding degree: XOD (XOD [3]; listed as Peak 5): 55.80%; inhibition mode on α-GLU (α-GLU [6]): mixed type
–	–	–	OC[C@H]1O[C@@H](Oc2cc(O)cc(/C=C/c3ccc(O)cc3)c2)[C@H](O)[C@@H](O)[C@@H]1O [Resveratrol-5-O-D-glucoside (7), Resveratrol-5-O-D-glucoside]	Binding degree: TYR (TYR [1]; listed as Peak 7): 70.51%; Binding degree: α-GLU (α-GLU [2]; listed as Peak 7): 0.00%; Binding degree: XOD (XOD [3]; listed as Peak 7): 11.65%
57.00	11.90	49.77	O=C(O)CC(=O)OCC1OC(Oc2cc(O)cc(C=Cc3ccc(O)cc3)c2)C(O)C(O)C1O (stereo not shown) [Malonyl glucoside resveratrol (6), Malonyl glucoside resveratrol]	–
57.64	0.00	0.00	OC[C@H]1O[C@@H](Oc2ccc(/C=C/c3cc(O)cc(O[C@@H]4O[C@H](CO)[C@@H](O)[C@H](O)[C@H]4O)c3)cc2)[C@H](O)[C@@H](O)[C@@H]1O [Polydatin-4′-O-D-glucoside (3), Polydatin-4′-O-D-glucoside]	–

Compound	Binding degree: TYR (TYR [1]) [%]	Binding degree: α-GLU (α-GLU [2]) [%]	Binding degree: XOD (XOD [3]) [%]	also measured
COC(=O)c1cc(O)c(O)c(O)c1 [Methylgallate (1), Methylgallate]	36.03	0.00	0.00	inhibition mode on TYR (TYR [4]): noncompetitive type; IC50 (tyrosinase (TYR)): 555 µM
